# According to PMC8129716 (CPT: Pharmacometrics & Systems Pharmacology, 2021):
# Experiments:
# CYP3A [1] = test: PBPK simulation of zanubrutinib as perpetrator, midazolam; parameters: species or system human
# CYP3A [2] = details: midazolam 2 mg with/without zanubrutinib 160 mg b.i.d.; cited from earlier work
# CYP2C9 [3] = test: PBPK simulation of zanubrutinib as perpetrator, warfarin; parameters: species or system human
# CYP2C9 [4] = details: warfarin 10 mg with/without zanubrutinib; cited from earlier work
# CYP2C19 [5] = details: omeprazole 20 mg with/without zanubrutinib; cited from earlier work
# CYP2C19 [6] = test: PBPK simulation of zanubrutinib as perpetrator, omeprazole; parameters: species or system human
# CYP3A [7] = details: co-administration of itraconazole; cited from earlier work
# CYP3A [8] = details: cited from earlier work
smiles,measurement,setting,value
"Cc1ncc2n1-c1ccc(Cl)cc1C(c1ccccc1F)=NC2 [midazolam, reference compound]",midazolam AUC ratio observed/predicted,CYP3A [1],1.02
same,"midazolam AUC ratio, observed (90% CI)",CYP3A [2],0.53 (0.48–0.57)
same,"midazolam Cmax ratio, observed (90% CI)",CYP3A [2],0.70 (0.63–0.78)
CC(=O)CC(c1ccccc1)c1c(O)c2ccccc2oc1=O (stereo not drawn) [warfarin],warfarin AUC ratio observed/predicted,CYP2C9 [3],1.03
same,warfarin Cmax ratio observed/predicted,CYP2C9 [3],0.95
same,"warfarin AUC ratio, observed (90% CI)",CYP2C9 [4],1.00 (0.98–1.03)
same,"warfarin Cmax ratio, observed (90% CI)",CYP2C9 [4],0.95 (0.87–1.04)
COc1ccc2[nH]c([S+]([O-])Cc3ncc(C)c(OC)c3C)nc2c1 (stereo not drawn) [omeprazole],"omeprazole AUC ratio, observed (90% CI)",CYP2C19 [5],0.63 (0.5–0.70)
same,"omeprazole Cmax ratio, observed (90% CI)",CYP2C19 [5],0.79 (0.65–0.97)
same,omeprazole AUC ratio observed/predicted,CYP2C19 [6],0.67
same,omeprazole Cmax ratio observed/predicted,CYP2C19 [6],0.81
CCC(C)n1ncn(-c2ccc(N3CCN(c4ccc(OCC5COC(Cn6cncn6)(c6ccc(Cl)cc6Cl)O5)cc4)CC3)cc2)c1=O (stereo not drawn) [itraconazole],increase of zanubrutinib AUC0-t,CYP3A [7],3.9 fold
same,increase of zanubrutinib Cmax,CYP3A [7],2.6 fold
NC(=O)N1c2ccccc2C=Cc2ccccc21 [Carbamazepine],simulated ribociclib AUC ratio (with/without inducer),CYP3A [8],0.48
O=C1Nc2ccc(Cl)cc2[C@@](C#CC2CC2)(C(F)(F)F)O1 [Efavirenz],simulated ribociclib AUC ratio (with/without inducer),CYP3A [8],0.40
